Measured values reported in US11400059B2, “Treatment of pain and/or pain related symptoms associated with dysmenorrhea” (ALYRA BIOTECH PTY LTD, priority 2017, dated 2022).
“Also recorded” adds a separate entry of the source.

How the values were obtained:
hNOD1 = target: T1, hNOD1 (Homo sapiens, UniProt Q9Y239); assay: Human TLR/NLR agonist screening, NF-κB SEAP reporter in HEK293 cells; type: cell-based; details: agonist mode, Control+ = C12-iE-DAP 1 μg/mL
T1 construct: expressed in transfected cells; host or cells: HEK293
T1 sequence (Q9Y239 1-953): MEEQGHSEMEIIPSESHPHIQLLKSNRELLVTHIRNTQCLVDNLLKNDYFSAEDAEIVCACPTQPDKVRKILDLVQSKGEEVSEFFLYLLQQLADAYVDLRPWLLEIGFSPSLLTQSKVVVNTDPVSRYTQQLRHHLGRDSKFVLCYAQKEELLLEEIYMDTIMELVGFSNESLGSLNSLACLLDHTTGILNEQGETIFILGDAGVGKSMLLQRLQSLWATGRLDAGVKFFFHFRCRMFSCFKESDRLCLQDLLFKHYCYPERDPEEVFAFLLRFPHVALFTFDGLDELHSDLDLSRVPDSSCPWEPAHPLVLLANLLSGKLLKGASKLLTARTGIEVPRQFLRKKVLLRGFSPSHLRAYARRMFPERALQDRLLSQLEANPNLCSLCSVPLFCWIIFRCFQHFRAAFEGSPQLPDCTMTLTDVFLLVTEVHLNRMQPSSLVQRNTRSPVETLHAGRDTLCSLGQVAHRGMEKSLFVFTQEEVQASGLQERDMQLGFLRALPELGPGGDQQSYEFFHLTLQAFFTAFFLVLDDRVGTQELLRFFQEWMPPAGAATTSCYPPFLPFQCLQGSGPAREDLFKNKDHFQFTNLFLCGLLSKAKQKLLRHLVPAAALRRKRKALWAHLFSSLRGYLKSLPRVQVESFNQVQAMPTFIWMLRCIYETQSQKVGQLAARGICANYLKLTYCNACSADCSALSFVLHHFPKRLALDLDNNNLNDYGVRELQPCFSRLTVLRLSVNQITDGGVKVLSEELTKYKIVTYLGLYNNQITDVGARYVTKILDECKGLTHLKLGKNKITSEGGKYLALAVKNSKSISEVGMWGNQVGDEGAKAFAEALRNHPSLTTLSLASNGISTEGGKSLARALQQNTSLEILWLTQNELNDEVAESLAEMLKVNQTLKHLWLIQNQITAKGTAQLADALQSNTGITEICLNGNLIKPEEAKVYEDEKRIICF
Description: (§1) Toll-Like Receptor (TLR), NOD-Like Receptor (NLR) and C-Type Lectin Receptor (CLR) stimulation were tested by assessing NF-κB activation in HEK293 cells expressing a given TLR, NLR or CLR. The activity of the test articles was tested at one concentration and compared to control ligands. These steps were performed in triplicate.
hNOD1: C12-iE-DAP at 1 μg/mL Antagonist: 100 ng/mL.
(§2) In a 96-well plate (200 μL total volume) containing the appropriate cells (50,000-75,000 cells/well), 20 μL of the test article or the positive control ligand was added to the wells. For the antagonist assay, the test article was incubated with the cells, at 37° C. with 5% CO2, for 30 minutes prior to the addition of the positive control ligand to the wells. The media added to the wells was designed for the detection of NF-κB induced SEAP expression. After a 16-24 hr incubation the optical density (OD) was read at 650 nm on a Molecular Devices SpectraMax 340PC absorbance detector.
(§3) The fold induction (ratio of average induced value to average non-induced value) results were as follows: […]

[1] = tested on: spinal astrocytes (GFAP) in the dorsal horn of the spinal cord; assay: Spinal astrocyte activation (GFAP immunofluorescence) after intrauterine LPS; type: in vivo, mouse (Balb/C); details: 3 estrous cycles
Description: (§4) Group 1 included twelve mice with 20 μl endotoxin-free saline introduced to the uterus on the first day of estrus and the subsequent day over 3 consecutive estrous cycles. Group 2 included twelve mice with LPS (100 μg/kg) instilled in the uterus on the first day of estrus and saline injected on the subsequent day over 3 consecutive estrous cycles. Group 3 included twelve mice with LPS (100 μg/kg) mixed with amitriptyline (20 μl of a 100 μM solution, equivalent to 28 μg/kg) instilled in the uterus on the first day of estrus, and amitriptyline alone instilled on the subsequent day over 3 consecutive estrous cycles. Group 4 included 14 mice with LPS (100 μg/kg) mixed with TAK-242 (20 μl of a 100 μM solution, equivalent to 36 μg/kg) instilled on the first day of estrus and TAK-242 alone instilled on the subsequent day over 3 consecutive estrous cycles.
(§5) The investigation involved the instillation of 20 ul of an endotoxin-free 0.9% saline solution into the uterus of all animals on the first day of estrus and the subsequent day during 3 consecutive estrous cycles. Additional agents added to the saline were included according to the groups outlined below. Where LPS is administered, this was done on only 1 day per estrous cycle.
(§6) Where amitriptyline or TAK-242 was administered, this is on both the first day of estrus and the subsequent day.
(§7) The spinal cord was assessed using immunohistochemistry techniques across levels T10, T11, T12, T13, L1, L2, L3, L4, L5, L6, S1 and S2 for Groups 1 and 2, where T represents the thoracic segment of the spinal cord, L represents the lumbar segment of the spinal cord and S represents the sacral segment of the spinal cord.
as §7, with “levels” for “levels T10, T11,”, “L6, S” for “L6, S1”, “Groups 3” for “Groups 1”, “and 4,” for “and 2,”, “cord. […]” for “cord.”

[2] = tested on: spinal microglia (Iba1) in the dorsal horn of the spinal cord; assay: Spinal microglial activation (Iba1 immunofluorescence) after intrauterine LPS; type: in vivo, mouse (Balb/C); details: 3 estrous cycles
Description: as §4, §5, §6, §7
as §7, with “levels” for “levels T10, T11,”, “L6, S” for “L6, S1”, “Groups 3” for “Groups 1”, “and 4,” for “and 2,”, “cord. […]” for “cord.”

[3] = tested on: spinal glial cells in the dorsal horn of the spinal cord; assay: Spinal glial activation (astrocytes and microglia) after intrauterine LPS, overall statements; type: in vivo, mouse (Balb/C)
Excerpt: In the model, we investigated whether intrauterine LPS administration would cause an activation of the innate immune system in the uterus, replicating the inflammation often seen in dysmenorrhea, with possible association with pain. As inflammation is intrinsically linked with pain, we investigated whether activation of the innate immune system in the uterus would induce activation of spinal glial cells (central nervous system immune cells) in the dorsal horn of the spinal cord. Spinal glial cells include astrocytes and microglia. Activation of spinal glial cells was assessed using immunoflourescent staining with GFAP (astrocytes) or Iba1 (microglia). We then investigated if spinal glial activation is attenuated by the innate immune system blocking drugs amitriptyline and TAK-242.
as §4
Determination of spinal glial response was then assessed using immunofluorescence to confirm the validity of the experimental model.
Determination of the ability of TLR4 antagonists to block the activation of spinal astrocytes and microglia induced by intra-uterine instillation of LPS was assessed.
An assessment of glial activation was made using immunochemistry techniques including Ionized calcium binding adaptor molecule 1 (Iba1) expression and glial fibrillary-associated protein (GFAP) variability in the dorsal horn. Iba1 expression is a marker for microglial activation, and GFAP is a marker for astrocyte activation. The spinal cord levels chosen are consistent with the level of spinal afferent neurons associated with the pelvis, including the uterus in the mouse.

hTLR9 = target: T2, hTLR9 (Homo sapiens, UniProt Q9NR96); assay: Human TLR/NLR agonist screening, NF-κB SEAP reporter in HEK293 cells; type: cell-based; details: agonist mode, Control+ = CpG ODN 2006 1 μg/mL
T2 construct: expressed in transfected cells; host or cells: HEK293
T2 sequence (Q9NR96 26-1032): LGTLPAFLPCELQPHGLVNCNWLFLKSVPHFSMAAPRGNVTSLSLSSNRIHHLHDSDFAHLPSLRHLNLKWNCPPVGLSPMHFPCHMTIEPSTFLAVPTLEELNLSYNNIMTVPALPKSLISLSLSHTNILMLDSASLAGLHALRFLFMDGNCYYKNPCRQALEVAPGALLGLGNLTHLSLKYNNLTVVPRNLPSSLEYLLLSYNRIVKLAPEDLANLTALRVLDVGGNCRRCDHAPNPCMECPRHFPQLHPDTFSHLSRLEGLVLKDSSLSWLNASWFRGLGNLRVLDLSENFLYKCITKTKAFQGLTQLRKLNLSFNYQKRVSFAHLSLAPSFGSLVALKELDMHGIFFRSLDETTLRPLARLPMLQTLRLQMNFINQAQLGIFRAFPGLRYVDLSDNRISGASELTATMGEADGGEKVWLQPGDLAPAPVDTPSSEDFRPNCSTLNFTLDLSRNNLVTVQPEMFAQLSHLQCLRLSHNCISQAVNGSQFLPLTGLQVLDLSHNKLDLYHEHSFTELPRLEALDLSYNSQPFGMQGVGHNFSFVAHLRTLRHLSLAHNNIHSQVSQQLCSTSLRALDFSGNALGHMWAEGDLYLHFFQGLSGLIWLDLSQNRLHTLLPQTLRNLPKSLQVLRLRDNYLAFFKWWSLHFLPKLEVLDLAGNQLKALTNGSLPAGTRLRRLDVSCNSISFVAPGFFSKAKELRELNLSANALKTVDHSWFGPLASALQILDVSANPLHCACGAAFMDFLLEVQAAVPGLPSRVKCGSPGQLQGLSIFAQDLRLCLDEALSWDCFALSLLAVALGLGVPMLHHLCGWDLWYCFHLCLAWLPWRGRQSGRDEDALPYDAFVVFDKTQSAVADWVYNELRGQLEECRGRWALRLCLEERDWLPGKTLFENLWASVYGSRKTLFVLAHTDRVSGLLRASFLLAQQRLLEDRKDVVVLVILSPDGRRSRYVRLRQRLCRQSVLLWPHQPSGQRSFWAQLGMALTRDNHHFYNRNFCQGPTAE
Description: as §1
hTLR9: CpG ODN 2006 at 1 μg/mL Antagonist: 500 ng/mL.
as §2, §3

[4] = tested on: mice with intrauterine LPS; assay: Facial Grimace Scale 24 hours after final LPS stimulation; type: in vivo, mouse (Balb/C); details: intrauterine LPS vs saline, 24 hours after final LPS stimulation
Description: as §4
24 hours following the final LPS stimulation mice were subjected to assessment for the presence or absence of pain. This was assessed using the following tests:
Facial Grimace Scale: Photos of mice in their home cage will be taken, to score their facial Grimace and this was quantified and compared between groups. For further information see: http://www.nature.com/nmeth/journal/v7/n6/full/nmeth.1455.html.

hTLR5 = target: T3, hTLR5 (Homo sapiens, UniProt O60602); assay: Human TLR/NLR agonist screening, NF-κB SEAP reporter in HEK293 cells; type: cell-based; details: agonist mode, Control+ = S. typhimurium flagellin 100 ng/mL
T3 construct: expressed in transfected cells; host or cells: HEK293
T3 sequence (O60602 21-858): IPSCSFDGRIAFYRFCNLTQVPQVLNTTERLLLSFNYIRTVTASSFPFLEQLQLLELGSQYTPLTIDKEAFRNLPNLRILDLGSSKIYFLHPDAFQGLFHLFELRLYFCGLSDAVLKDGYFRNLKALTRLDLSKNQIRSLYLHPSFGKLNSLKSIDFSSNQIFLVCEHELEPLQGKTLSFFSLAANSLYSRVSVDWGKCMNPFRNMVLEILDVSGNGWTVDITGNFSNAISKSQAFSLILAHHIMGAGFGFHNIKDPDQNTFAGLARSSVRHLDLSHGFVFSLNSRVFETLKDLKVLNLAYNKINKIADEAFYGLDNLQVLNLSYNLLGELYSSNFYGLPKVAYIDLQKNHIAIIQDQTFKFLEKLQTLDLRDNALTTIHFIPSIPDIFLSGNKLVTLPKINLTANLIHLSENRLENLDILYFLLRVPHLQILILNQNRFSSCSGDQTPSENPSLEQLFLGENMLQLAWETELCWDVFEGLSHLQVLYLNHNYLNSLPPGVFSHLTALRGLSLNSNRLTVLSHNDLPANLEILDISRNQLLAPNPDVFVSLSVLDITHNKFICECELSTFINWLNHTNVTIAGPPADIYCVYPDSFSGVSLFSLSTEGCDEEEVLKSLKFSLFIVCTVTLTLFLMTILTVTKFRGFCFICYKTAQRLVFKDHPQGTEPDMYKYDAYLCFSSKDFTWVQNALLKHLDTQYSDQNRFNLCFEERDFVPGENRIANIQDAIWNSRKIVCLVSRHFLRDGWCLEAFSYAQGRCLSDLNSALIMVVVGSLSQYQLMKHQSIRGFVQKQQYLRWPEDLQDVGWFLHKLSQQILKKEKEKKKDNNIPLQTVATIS
Description: as §1
hTLR5: S. typhimurium flagellin at 100 ng/mL Antagonist: 50 ng/mL.
as §2, §3

[5] = intrauterine, mixed with LPS 100 μg/kg on first day of estrus and alone the subsequent day, amitriptyline 28 μg/kg, TAK-242 36 μg/kg, vs LPS

CCCCCCCCCCCC(=O)N[C@H](CCC(=O)NC(CCCC(N)C(=O)O)C(=O)O)C(=O)O (some centres unmarked) [C12-iE-DAP]
Fold induction (ratio of average induced value to average non-induced value) (hNOD1): 20

CCOC(=O)C1=CCCC[C@H]1S(=O)(=O)Nc1ccc(F)cc1Cl [TAK-242]
astrocytic reactivity (GFAP staining), impact of intrauterine LPS at multiple levels of the spinal cord [1, 5]: reduced astrocytic reactivity to below basal levels | microglial reactivity (Iba1 staining), impact of intrauterine LPS at multiple levels of the spinal cord [2, 5]: reduced microglia reactivity to basal levels | spinal glial activation induced by intrauterine LPS ([3]; intrauterine co-administration with LPS): prevented; also recorded: block spinal glial activation | dose effective at reducing spinal glial activation ([3]; mouse model, intrauterine administration): 0.036 mg/kg

CpG ODN 2006
Fold induction (ratio of average induced value to average non-induced value) (hTLR9): 18

lipopolysaccharide [LPS]
GFAP astrocyte staining ([1]; intrauterine LPS 100 μg/kg once per cycle, vs saline controls): increase in GFAP astrocyte staining through widespread levels of the spinal cord; also recorded: substantial increase in GFAP astrocyte staining | presentation of Grimace behaviours [4]: significant increase in the presentation of Grimace behaviours | Iba1 microglial staining ([2]; intrauterine LPS 100 μg/kg once per cycle, vs saline): localised increase in Iba1 microglial staining | activation of spinal glial cells (astrocytes and microglia) ([3]; intra-uterine LPS): induced activation of spinal astrocytes and microglia; also recorded: activate spinal glial cells

B1: S. typhimurium flagellin: hTLR5 control ligand (protein, UniProt P06179 2-495, looked up)
Flagellin: AQVINTNSLSLLTQNNLNKSQSALGTAIERLSSGLRINSAKDDAAGQAIANRFTANIKGLTQASRNANDGISIAQTTEGALNEINNNLQRVRELAVQSANSTNSQSDLDSIQAEITQRLNEIDRVSGQTQFNGVKVLAQDNTLTIQVGANDGETIDIDLKQINSQTLGLDTLNVQQKYKVSDTAATVTGYADTTIALDNSTFKASATGLGGTDQKIDGDLKFDDTTGKYYAKVTVTGGTGKDGYYEVSVDKTNGEVTLAGGATSPLTGGLPATATEDVKNVQVANADLTEAKAALTAAGVTGTASVVKMSYTDNNGKTIDGGLAVKVGDDYYSATQNKDGSISINTTKYTADDGTSKTALNKLGGADGKTEVVSIGGKTYAASKAEGHNFKAQPDLAEAAATTTENPLQKIDAALAQVDTLRSDLGAVQNRFNSAITNLGNTVNNLTSARSRIEDSDYATEVSNMSRAQILQQAGTSVLAQANQVPQNVLSLLR
Fold induction (ratio of average induced value to average non-induced value) (hTLR5): 18
